Experimental data: EPA's ToxValDB 9.5
Where “and” joins values, the source holds several entries; their conditions need not be identical. Identical values can stand only once.

How the values were obtained:
Rattus norvegicus [1] = details: M/F
Rattus norvegicus [2] = system: Rattus norvegicus
Rattus norvegicus [3] = details: subchronic, oral, gavage
Mus musculus = details: for LD50 / LC50: acute
Oryctolagus sp. = details: dermal; for LD50: acute, occlusive
Rattus norvegicus [4] = details: for LC50 / LD50: acute
[5] = subchronic, duration: 90 days, oral, diet, increased liver weight, serum cholesterol, hepatic aminopyrine n-demethylase activity, and alanine transaminase levels
[6] = subchronic, oral, kidney lesions
[7] = short-term, duration: 2 weeks, inhalation, B6C3F1
[8] = reproduction developmental, duration: 4 weeks, Inhalation, F, CD
[9] = reproduction developmental, duration: 4 weeks, Inhalation, M, CD
[10] = reproduction developmental, duration: 10 days, oral, gavage, Crl:CD(SD)
[11] = short-term, duration: 2 weeks, oral, gavage, B6C3F1
[12] = subchronic, duration: 13 weeks, inhalation, B6C3F1
[13] = subchronic, duration: 13 weeks, oral, gavage, B6C3F1
[14] = short-term, duration: 2 weeks, oral, gavage, Fischer 344
[15] = subchronic, duration: 13 weeks, inhalation, Sprague-Dawley
[16] = subchronic, duration: 13 weeks, oral, gavage, F, Fischer 344
[17] = subchronic, duration: 13 weeks, oral, gavage, M, Fischer 344

CC(C)(C)[C@H](O)[C@H](Cc1ccc(Cl)cc1)n1cncn1 (racemic) [Paclobutrazol]
LEL (Rattus norvegicus [1]; [5]): 62.5 mg/kg-day
NOEL (Rattus norvegicus [1]; [5]): 12.5 mg/kg-day

Clc1cc(Cl)c(Cl)cc1Cl [1,2,4,5-Tetrachlorobenzene]
LOAEL (Rattus norvegicus [1]; [6]): 3.4 mg/kg-day
NOAEL (Rattus norvegicus [1]; [6]): 0.34 mg/kg-day

CC(Cl)CCl (stereo unspecified) [1,2-Dichloropropane]
LOAEL (Rattus norvegicus [2]; short-term, duration: 2 weeks, inhalation, M/F, Fischer 344, respiratory): 462 mg/m3
LOAEL (Rattus norvegicus [2]; subchronic, duration: 13 weeks, oral, gavage, M, Sprague-Dawley, hematological): 100 mg/kg-day
NOEL (Rattus norvegicus [3]; duration: 13 weeks, M/F, Fischer 344, Deaths + Body Weight Changes: decrease + Histopathology: Liver/centrilobular-Congestion Liver-Hepatic fatty change Liver/centrilobular -…): 250 mg/kg-day
LOAEL (Rattus norvegicus [1]; subchronic, duration: 13 weeks, inhalation, hyperplasia of the nasal mucosa): 69.3 mg/m3

c1ccc(NNc2ccccc2)cc1 [1,2-Diphenylhydrazine]
NOAEL (Rattus norvegicus [2]; subchronic, duration: 13 weeks, oral, diet, M, Fischer 344, hepatic): 4.8 mg/kg-day

N#Cc1cccc(C#N)c1 [1,3-Benzenedicarbonitrile]
NOAEL (Mus musculus; chronic, duration: 91 days, oral, diet, CD1): 20 mg/kg-day
LD50 (Oryctolagus sp.): > 2000 mg/kg
NOAEL (Oryctolagus sp.; short-term, duration: 3 weeks, non-occlusive, New Zealand): 500 mg/kg-day
LC50 (Rattus norvegicus [4]; Inhalation, Sprague-Dawley): > 8970 mg/m3
LD50 (Rattus norvegicus [4]; oral, gavage): > 5010 mg/kg
NOAEL (Rattus norvegicus [4]; chronic, duration: 99 days, oral, diet, F, Charles River Crl:CD BR VAF/PLUS): 5 mg/kg-day
NOAEL (Rattus norvegicus [4]; chronic, duration: 99 days, oral, diet, M, Charles River Crl:CD BR VAF/PLUS): 1 mg/kg-day
NOAEL (Rattus norvegicus [4]; reproduction developmental, duration: 122 days, oral, diet, F): 25 mg/kg-day
NOAEL (Rattus norvegicus [4]; short-term, duration: 14 days, Inhalation, Sprague-Dawley): 190 mg/m3

CCCCCCCCCCCCN [1-Dodecanamine]
LD50 (Mus musculus; oral, gavage): 1160 mg/kg
LD50 (Rattus norvegicus [4]; oral, gavage): 1020 mg/kg
LD50 (Rattus norvegicus [4]; oral, gavage, Wistar): > 2000 mg/kg

C=C(Cl)CCl [2,3-Dichloro-1-propene]
LOAEL (Rattus norvegicus [2]; short-term, duration: 11 days, inhalation, M/F, Fischer 344, respiratory): 22.7 mg/m3

Oc1cc(Cl)ccc1Cl [2,5-Dichlorophenol]
LD50 (Mus musculus; oral, gavage, CD1): ≥ 946 mg/kg and ≤ 1600 mg/kg
LD50 (Oryctolagus sp.; New Zealand): > 8000 mg/kg
LOAEL (Oryctolagus sp.; reproduction developmental, duration: 21 days, non-occlusive, New Zealand): 1 mg/kg-day
LC50 (Rattus norvegicus [4]; inhalation, Spartan): > 185000 mg/m3
LD50 (Rattus norvegicus [4]; oral, gavage, Wistar): 2480 mg/kg
LOAEL (Rattus norvegicus [4]; reproduction developmental, duration: 4 weeks, inhalation, Sprague-Dawley): 0.1 mg/L

Clc1ccc(C(Cl)(Cl)Cl)cn1 [2-Chloro-5-trichloromethylpyridine]
NOAEL (Mus musculus; [7]): 9.44 mg/m3
LC50 (Rattus norvegicus [4]; Inhalation, Fischer 344): > 108 mg/m3
LD50 (Rattus norvegicus [4]; oral, gavage, Sprague-Dawley): ≥ 500 mg/kg and ≤ 1000 mg/kg
NOAEL (Rattus norvegicus [4]; short-term, duration: 2 weeks, Inhalation, Fischer 344): 9.44 mg/m3

O=C(CCl)c1ccccc1 [2-Chloroacetophenone]
LOAEL (Rattus norvegicus [1]; chronic, inhalation, squamous hyperplasia of the nasal respiratory epithelium): 1 mg/m3

CCCCC(C)=O [2-Hexanone]
LOAEL (Rattus norvegicus [2]; chronic, duration: 13 months, oral, drinking water, M, Sprague-Dawley, neurological): 143 mg/kg-day

C1CN(SSN2CCOCC2)CCO1 [4,4'-Dithiodimorpholine]
LC50 (Mus musculus; inhalation): 1620 mg/m3
LD50 (Oryctolagus sp.; New Zealand): > 5010 mg/kg
LD50 (Rattus norvegicus [4]; oral, gavage, Sprague-Dawley): 5600 mg/kg
LOAEL (Rattus norvegicus [4]; [8]): 29 mg/m3
NOAEL (Rattus norvegicus [4]; [8]): 9.9 mg/m3
LOAEL (Rattus norvegicus [4]; [9]): 9.9 mg/m3
NOAEL (Rattus norvegicus [4]; [9]): 1.1 mg/m3
LOAEL (Rattus norvegicus [4]; [10]): 500 mg/kg-day
NOAEL (Rattus norvegicus [4]; [10]): 100 mg/kg-day

Nc1ccc(Cl)cc1 [4-Chloroaniline]
LOAEL (Rattus norvegicus [1]; chronic, oral, nonneoplastic lesions of splenic capsule): 12.5 mg/kg-day

C=CC1CC=CCC1 (stereo unspecified) [4-Vinylcyclohexene]
LC50 (Mus musculus; inhalation): 46900 mg/m3
NOAEL (Mus musculus; [7]): 3190 mg/m3
LOAEL (Mus musculus; [11]): 2500 mg/kg-day
NOAEL (Mus musculus; [11]): 1250 mg/kg-day
LOAEL (Mus musculus; [12]): 4420 mg/m3
NOAEL (Mus musculus; [12]): 1110 mg/m3
LOAEL (Mus musculus; [13]): 1200 mg/kg-day
NOAEL (Mus musculus; [13]): 600 mg/kg-day
LC50 (Rattus norvegicus [4]; inhalation): 27000 mg/m3 and < 35400 mg/m3
LD50 (Rattus norvegicus [4]; oral, gavage, Carworth Wistar): 2560 mg/kg
NOAEC (Rattus norvegicus [4]; short-term, duration: 2 weeks, inhalation, F, Sprague-Dawley): 6640 mg/m3
NOAEC (Rattus norvegicus [4]; short-term, duration: 2 weeks, inhalation, M, Sprague-Dawley): 3190 mg/m3
LOAEL (Rattus norvegicus [4]; [14]): 1250 mg/kg-day
NOAEL (Rattus norvegicus [4]; [14]): 600 mg/kg-day
LOAEL (Rattus norvegicus [4]; [15]): 4420 mg/m3
NOAEL (Rattus norvegicus [4]; [15]): 1110 mg/m3
LOAEL (Rattus norvegicus [4]; [16]): 800 mg/kg-day
NOAEL (Rattus norvegicus [4]; [16]): 400 mg/kg-day
LOAEL (Rattus norvegicus [4]; [17]): 400 mg/kg-day
NOAEL (Rattus norvegicus [4]; [17]): 200 mg/kg-day
NOEL (Rattus norvegicus [3]; duration: 13 weeks, M/F, Fischer 344, Deaths + Body Weight Changes: decrease + Histopathology: Kidney-Hyaline droplet degeneration Glandular stomach-Inflammation): < 50 mg/kg-day
NOEL (Rattus norvegicus [3]; M, Sprague-Dawley, Clinical Observation: Salivation Locomotor activity decrease + Relative Organ Weight: Kidney increase + Histopathology: Stomach/Glandular …): < 2 mg/kg-day
